Experimental data reported in patent US11638713B2, “Patentiflorin A analogs as antiviral agents” (priority 2019, dated 2023).

How the values were obtained:
HIV = assay: microbe, parasite or virus in culture; format: cell-based; conditions: for EC50: Human immunodeficiency virus 1, A549
H5N1 virus = assay: microbe, parasite or virus in culture; format: cell-based, H5N1 influenza virus; conditions: for EC50: H5N1, A549, read-out: EC50 against H5N1 virus; for inhibition at 0.0125 µg/mL: H5N1, A549, 12.5 ng/mL; for inhibition at 0.05 µg/mL: H5N1, A549, 50 ng/mL; for inhibition at 0.1 µg/mL: H5N1, A549, 100 ng/mL; for inhibition at 0.5 µg/mL: H5N1, A549, 500 ng/mL
EBOV (Ebola virus) = assay: microbe, parasite or virus in culture; format: cell-based; conditions: Zaire ebolavirus; for EC50: A549, read-out: EC50 against EBOV; for inhibition at 0.0125 µg/mL: 12.5 ng/mL; for inhibition at 0.05 µg/mL: 50 ng/mL; for inhibition at 0.1 µg/mL: 100 ng/mL; for inhibition at 0.5 µg/mL: 500 ng/mL
[1] = system: VSV (vesicular stomatitis virus); assay: microbe, parasite or virus in culture; format: cell-based; conditions: for EC50: A549, read-out: EC50 against VSV; for inhibition at 0.0125 µg/mL: A549, 12.5 ng/mL; for inhibition at 0.05 µg/mL: A549, 50 ng/mL; for inhibition at 0.1 µg/mL: A549, 100 ng/mL; for inhibition at 0.5 µg/mL: A549, 500 ng/mL
SARS-CoV-2 = assay: microbe, parasite or virus in culture; format: cell-based; conditions: Severe acute respiratory syndrome coronavirus 2, HepG2, read-out: EC50 against SARS-CoV-2
in vitro = conditions: human
A549 cells = assay: cells; conditions: Homo sapiens, A549, read-out: % Inhibition against A549 cells
[2] = CC50 against the host cell line A549
[3] = Influenza A virus, read-out: % Inhibition against H5N1 virus
[4] = A549, read-out: % Inhibition against EBOV
[5] = read-out: % Inhibition against VSV

Row | Compound | EC50 (H5N1 virus; Influenza A virus) [µM] | EC50 (EBOV (Ebola virus)) [µM] | EC50 [1] [µM] | EC50 (SARS-CoV-2) [µM] | CC50 (in vitro; CC50 (nM)) [nM] | CC50 (in vitro; [2]) [nM] | inhibition at 0.05 µg/mL (H5N1 virus; [3]) [%] | inhibition at 0.05 µg/mL (EBOV (Ebola virus); [4]) [%] | inhibition at 0.05 µg/mL [1, 5] [%] | inhibition at 0.05 µg/mL (A549 cells) [%] | also measured
1 | COc1cc2c(OC3O[C@H](C)[C@@H](O)[C@H](O)[C@H]3O)c3c(c(-c4ccc5c(c4)OCO5)c2cc1OC)C(=O)OC3 (stereo partly shown) [Compound 26b, Patentiflorin A] | 0.00448 | 0.0548 | 0.0425 | 0.0672 | 347 | 386 | – | – | – | – | EC50 (HIV): 0.0211 µM
2 | COc1cc2c(OC3O[C@H](C)[C@H](O)[C@H](O)[C@H]3O)c3c(c(-c4ccc5c(c4)OCO5)c2cc1OC)C(=O)OC3 (stereo partly drawn) [Compound 26e, 7-O-β-D-fucopyranosyldiphyllin] | – | – | – | 0.0304 | > 9500 | – | – | – | – | – | anti-HIV activity (inhibition) (HIV; at 9496.9 nM): no inhibition; inhibition at 1 µg/mL (H5N1 virus; Influenza A virus, H5N1, A549, 1000 ng/mL, read-out: % Inhibition against H5N1 virus): 48.5%; inhibition at 5 µg/mL (H5N1 virus; Influenza A virus, H5N1, A549, 5000 ng/mL, read-out: % Inhibition against H5N1 virus): 88.9%
3 | C=CCOC(=O)O[C@@H]1COC(Oc2c3c(c(-c4ccc5c(c4)OCO5)c4cc(OC)c(OC)cc24)C(=O)OC3)[C@H](O)[C@H]1OC(C)=O (stereo partly drawn) [Compound 28ab1, 4″-O-allyl oxycarbonyl-3″-acetyl-7-O-β-D-xylosyldiphyllin] | 0.00505 | 0.0189 | 0.00378 | 0.0263 | 513 | 190 | 86 | 82.4 | 83.5 | 40.9 | inhibition at 0.0125 µg/mL (H5N1 virus; [3]): 91.8%; inhibition at 0.0125 µg/mL (EBOV (Ebola virus); [4]): 81%; inhibition at 0.0125 µg/mL [1, 5]: 85.9%; inhibition at 0.0125 µg/mL (A549 cells): 35.5%
4 | COc1cc2c(OC3O[C@H](C)[C@@H](O)[C@H](OC(=O)CC#N)[C@H]3O)c3c(c(-c4ccc5c(c4)OCO5)c2cc1OC)C(=O)OC3 (stereo partly drawn) [Compound 31j, 3″-O-cyanoacetyl-7-O-β-D-patentiflorin A] | 0.00084 | 0.00084 | 0.00091 | 0.0103 | 6.68 | 6.68 | 87.6 | 96.6 | 99.9 | 93.8 | EC50 (HIV): 0.00091 µM; % Inhibition against H5N1 virus (H5N1 virus; 50 ng/mL): 98.2%; inhibition at 0.0125 µg/mL (H5N1 virus; [3]): 97.5%; inhibition at 0.25 µg/mL (H5N1 virus; Influenza A virus, H5N1, A549, 250 ng/mL, read-out: % Inhibition against H5N1 virus): 97.9%; inhibition at 0.0125 µg/mL (EBOV (Ebola virus); [4]): 93.9%; inhibition at 0.0125 µg/mL [1, 5]: 98.4%; inhibition at 0.0125 µg/mL (A549 cells): 77%
5 | COc1cc2c(OC3O[C@H](CO)[C@H]4OC(C)(C)O[C@@H]4[C@H]3O)c3c(c(-c4ccc5c(c4)OCO5)c2cc1OC)C(=O)OC3 (stereo partly drawn) [Compound 32a, 3″, 4″-Acetonide-4-O-β-D-glucopyranosyldiphyllin] | 0.00063 | 0.0012 | 0.0181 | 0.00295 | 52.7 | 61.6 | – | – | – | – | –
6 | COc1cc2c(OC3O[C@H](CO)[C@@H]4OC(C)(C)O[C@@H]4[C@H]3O)c3c(c(-c4ccc5c(c4)OCO5)c2cc1OC)C(=O)OC3 (stereo partly drawn) [Compound 32b, 3″, 4″-Acetonide-4-O-β-D-galactopyranosyldiphyllin] | 0.00077 | 0.00085 | 0.00315 | 0.00301 | 52.7 | 30.7 | 88.1 | 92.7 | 99.6 | 76 | inhibition at 0.01 µg/mL (H5N1 virus; Influenza A virus, H5N1, A549, 10 ng/mL, read-out: % Inhibition against H5N1 virus): 91.7%; inhibition at 0.01 µg/mL (EBOV (Ebola virus); A549, 10 ng/mL, read-out: % Inhibition against EBOV): 86.4%; inhibition at 0.01 µg/mL ([1]; A549, 10 ng/mL, read-out: % Inhibition against VSV): 90.9%; inhibition at 0.01 µg/mL (A549 cells): 40.5%
7 | COc1cc2c(OC3O[C@@H]4COC(C)(C)O[C@@H]4[C@H](O)[C@H]3O)c3c(c(-c4ccc5c(c4)OCO5)c2cc1OC)C(=O)OC3 (stereo partly drawn) [Compound 32c, 4″,6″-Acetonide-4-O-β-D-galactopyranosyldiphyllin] | 0.0052 | 0.0203 | 0.124 | 0.0508 | 52.7 | 1040 | – | – | – | – | inhibition at 0.1 µg/mL (H5N1 virus; [3]): 65.1%; inhibition at 0.5 µg/mL (H5N1 virus; [3]): 88.1%; inhibition at 0.1 µg/mL (EBOV (Ebola virus); [4]): 85.5%; inhibition at 0.5 µg/mL (EBOV (Ebola virus); [4]): 88.2%; inhibition at 0.1 µg/mL [1, 5]: 48.9%; inhibition at 0.5 µg/mL [1, 5]: 88.1%; inhibition at 0.1 µg/mL (A549 cells): 2.9%; inhibition at 0.5 µg/mL (A549 cells): 39.7%
8 | COc1cc2c(OC3O[C@H](CO)[C@H](O)[C@@H]4OC(C)(C)O[C@@H]34)c3c(c(-c4ccc5c(c4)OCO5)c2cc1OC)C(=O)OC3 (stereo partly drawn) [Compound 32d, 2″,3″-Acetonide-4-O-β-D-galactopyranosyldiphyllin] | 0.2 | 0.396 | 0.286 | 0.0804 | 52.7 | 1350 | – | – | – | – | inhibition at 0.1 µg/mL (H5N1 virus; [3]): 19.3%; inhibition at 0.5 µg/mL (H5N1 virus; [3]): 83.5%; inhibition at 0.1 µg/mL (EBOV (Ebola virus); [4]): 65.5%; inhibition at 0.5 µg/mL (EBOV (Ebola virus); [4]): 82.7%; inhibition at 0.1 µg/mL [1, 5]: 100%; inhibition at 0.5 µg/mL [1, 5]: 71.7%; inhibition at 0.1 µg/mL (A549 cells): -2%; inhibition at 0.5 µg/mL (A549 cells): 24.3%
